In PubChem BioAssay (NCI) one finds TGI and GI50 data, which are given here for 14 compounds.

Test systems include U251 CNS; RPMI-8226 leukemia; KM12 colon; HCC-2998 colon; HL-60(TB) leukemia; CCRF-CEM leukemia; HCT-116 colon; NCI-H226 lung; MALME-3M melanoma; MDA-MB-435.
Common to all, as to test: growth of human tumour cells (NCI), 48 h

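A five-concentration, 48-hour dose response in 96-well plates underlies each endpoint, interpolated linearly between surrounding concentrations. At the GI50, growth is halved. TGI: total growth inhibition.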

In the case of `COc1ccc(N2C(=O)C3C=CC(n4[nH]c(=O)n(Cc5ccccc5)c4=O)CC3C2=O)cc1` (configuration not stated), the TGI with U251 CNS, in the experiment on RPMI-8226 leukemia, in the experiment with KM12 colon, in the experiment on HCC-2998 colon, in the experiment on HL-60(TB) leukemia and in the experiment with CCRF-CEM leukemia was above 100 µM throughout. Further, the TGI in the experiment with HCT-116 colon, with NCI-H226 lung and in the experiment with MALME-3M melanoma was above 100 µM throughout.

With `COC1=CC(c2ccc[nH]2)=N/C1=C\c1[nH]c(C)c(C)c1CCC(=O)OCc1ccccc1`, the GI50 is 0.44 µM with MDA-MB-435; 0.322 µM in the experiment with U251 CNS; 0.242 µM in the experiment on KM12 colon; 0.799 µM in the experiment on HL-60(TB) leukemia; 0.142 µM with CCRF-CEM leukemia; 0.065 µM in the experiment with HCT-116 colon. In addition, in the experiment with NCI-H226 lung, the GI50 was 0.377 µM. The TGI stood at 1.64 µM in the experiment with MDA-MB-435; 1.52 µM in the experiment on U251 CNS; 1.8 µM with KM12 colon; 3.46 µM in the experiment with HL-60(TB) leukemia; 2.59 µM in the experiment on CCRF-CEM leukemia; 1.11 µM in the experiment with HCT-116 colon. The compound also came in with a TGI in the experiment on NCI-H226 lung of 2.46 µM.

`COc1ccc(/C=C(\C2=NC(=O)CS2)c2nc3ccccc3[nH]2)cc1`: the TGI in the experiment on U251 CNS was above 100 µM; in the experiment with RPMI-8226 leukemia it was above 100 µM; in the experiment on KM12 colon, above 100 µM; in the experiment with HCC-2998 colon it was 49.7 µM; in the experiment on HL-60(TB) leukemia it was above 100 µM; with CCRF-CEM leukemia, above 100 µM. For the same compound, the TGI in the experiment with HCT-116 colon was above 100 µM; in the experiment with NCI-H226 lung it was 28.6 µM; in the experiment with MALME-3M melanoma, above 100 µM.

In the case of `O=C1C=CC(=O)[C@H]2C3C=CC(C4C3C3(Cl)C(Cl)=C(Cl)[C@]4(Cl)C3(Cl)Cl)[C@@H]12` (some centres not stated), the TGI came out at 7.02 µM in the experiment with MDA-MB-435; 13.3 µM with U251 CNS; 23 µM in the experiment on RPMI-8226 leukemia; 17 µM in the experiment on KM12 colon; 4.63 µM in the experiment on HL-60(TB) leukemia; 16.2 µM in the experiment on CCRF-CEM leukemia. In addition, the values for the TGI in the experiment on HCT-116 colon, with NCI-H226 lung and with MALME-3M melanoma were 12.9 µM, 23.5 µM and 22.6 µM, respectively.

`CP(=O)(O)C(N)c1ccccc1` (configuration not stated): the TGI with MDA-MB-435, in the experiment with U251 CNS, in the experiment on RPMI-8226 leukemia, in the experiment on KM12 colon, in the experiment on HL-60(TB) leukemia and with CCRF-CEM leukemia was above 100 µM in each case. Further, the TGI with HCT-116 colon, in the experiment on NCI-H226 lung and in the experiment with MALME-3M melanoma was above 100 µM each time.

With `CCOC(=O)C1=C(O)c2ccc(OC)cc2C(=O)C1=O`, the TGI with U251 CNS, with RPMI-8226 leukemia, with KM12 colon, in the experiment with HCC-2998 colon, with HL-60(TB) leukemia and in the experiment on CCRF-CEM leukemia was above 100 µM in each case. Besides, the TGI in the experiment on HCT-116 colon, with NCI-H226 lung and in the experiment with MALME-3M melanoma was above 100 µM in each case.

For the compound `Nc1nc(N)c2nc(CNc3ccc(C(=O)NC(CCNC(=O)c4ccccc4C(=O)O)C(=O)O)cc3)cnc2n1` (configuration not stated), the TGI with MDA-MB-435, with U251 CNS, in the experiment with RPMI-8226 leukemia, in the experiment on KM12 colon, in the experiment on HL-60(TB) leukemia and in the experiment with CCRF-CEM leukemia was above 100 µM in each case. Also, the TGI with HCT-116 colon, in the experiment on NCI-H226 lung and in the experiment on MALME-3M melanoma was above 100 µM each time. The GI50 is 0.0343 µM with RPMI-8226 leukemia and 0.0065 µM in the experiment on CCRF-CEM leukemia.

On to `COc1ccccc1[C@@H]1CCC2CC[C@@H](c3ccccc3OC)[N+]21Cc1ccccc1` (some centres not stated), for which the TGI in the experiment with MDA-MB-435 was determined as 10.5 µM; in the experiment on U251 CNS, 11.2 µM; in the experiment with RPMI-8226 leukemia it was 1.47 µM; in the experiment with KM12 colon, 7.03 µM; with HL-60(TB) leukemia, 4.88 µM; in the experiment on CCRF-CEM leukemia, 20.3 µM. For the same compound, the TGI in the experiment with HCT-116 colon was 13.1 µM; in the experiment on NCI-H226 lung, 6.73 µM; with MALME-3M melanoma it was 15.3 µM.

With `COc1cccc2c1C(=O)c1c(O)c3c(c(O)c1C2=O)CC(O)(C(C)=O)CC3O` (configuration not stated), the TGI was 14.9 µM with U251 CNS; 16.6 µM in the experiment with RPMI-8226 leukemia; 38.5 µM in the experiment with KM12 colon; 11.1 µM with HCC-2998 colon; 26.5 µM in the experiment on HL-60(TB) leukemia; 23.2 µM with CCRF-CEM leukemia. Further, the results for the TGI with HCT-116 colon, in the experiment on NCI-H226 lung and with MALME-3M melanoma were 10.1 µM, 18.6 µM and 12.7 µM, respectively.

With `O=P(Nc1cccc(Cl)c1)(Oc1ccccc1)N(CCCl)CCCl` (configuration not stated), the TGI in the experiment on U251 CNS was 28.3 µM; in the experiment with KM12 colon, 28.6 µM; in the experiment on HCC-2998 colon, 28.6 µM; with HL-60(TB) leukemia, above 100 µM; in the experiment on CCRF-CEM leukemia, above 100 µM; with HCT-116 colon it was 25.8 µM. Moreover, the TGI with NCI-H226 lung was 29.6 µM; in the experiment with MALME-3M melanoma it was 28.5 µM.

Regarding `O=C1C(Cl)C(c2ccc([N+](=O)[O-])cc2)N1n1cnc2ccccc2c1=O` (configuration not stated), the TGI in the experiment with U251 CNS, in the experiment with KM12 colon, in the experiment on HCC-2998 colon, in the experiment with CCRF-CEM leukemia, in the experiment with HCT-116 colon and with NCI-H226 lung was above 100 µM in each case. Further, the TGI in the experiment on MALME-3M melanoma is above 100 µM.

Turning to `COc1ccc(OC)c(-c2cc(=O)c3cc4c(cc3[nH]2)OCO4)c1`, the TGI in the experiment with U251 CNS was above 77.9 µM; in the experiment on RPMI-8226 leukemia, above 46.6 µM; with KM12 colon, above 46 µM; in the experiment with HCC-2998 colon it was 17.6 µM; with HL-60(TB) leukemia, above 26.1 µM; with CCRF-CEM leukemia, above 100 µM. Besides, the TGI was above 35.7 µM in the experiment with HCT-116 colon, 55.6 µM in the experiment on NCI-H226 lung and above 100 µM in the experiment on MALME-3M melanoma.

In the case of `Nc1ccn(CCCC(c2ccccc2)P(=O)(O)O)c(=O)n1` (configuration not stated), the TGI in the experiment on U251 CNS, with RPMI-8226 leukemia, in the experiment on KM12 colon, with HCC-2998 colon, in the experiment on HL-60(TB) leukemia and with CCRF-CEM leukemia was above 100 µM throughout. In addition, the TGI in the experiment on HCT-116 colon and in the experiment with MALME-3M melanoma was above 100 µM each time.

For `CCOC(=O)C1=C(C)N(c2ccc(Cl)cc2)C2(O)C=CC(Nc3ccc(Cl)cc3)=C3C(=O)N(c4ccccc4)C(=O)C312` (configuration not stated), the TGI in the experiment with MDA-MB-435 was 5.29 µM; with U251 CNS it was 39.5 µM; in the experiment on RPMI-8226 leukemia, 4.13 µM; with KM12 colon it was 23.1 µM; with HL-60(TB) leukemia it was 23.4 µM; in the experiment with CCRF-CEM leukemia, 8.39 µM. The compound further displayed a TGI in the experiment with MALME-3M melanoma of 33.7 µM.
